{"source": "patent US6159953A", "about": "“Anti-malarial composition and method of use” (Catholic University of America, priority 1992, dated 2000)", "key": {"[1]": {"test_system": "HeLa S3 human cervix epithelioid carcinoma cells", "test": "Toxicity to cultured HeLa S3 cells, number of viable cells", "assay_type": "cell-based", "excerpt": "(§1) 2. Effects of orotate analogues on cell viability and the ability to synthesize nucleic acids from radioactive precursors, and the rescuing effects of normal pyrimidine bases or nucleosides or amino acid derivatives such as histidinol, can be tested in human-derived tissue culture cell lines. Human HT-1080 human sarcoma cells [Rusheed, S., et al., Cancer, 33:1027-30 (1974)], human diploid IMR-90 cells [Nichols, W. W., et al., Science, 196:60-3 (1977)], human cervical […] HeLa S3 cells [Puck, T. T., et al., J. Exp. Med., 103:273-84 (1956)], HL-60 human myeloid leukemia cells [Collins, S. J., et al., Nature, 270:347-9 (1977)], and mouse leukemia L-1210 cells [Moore, G. E., J. Nat. […] The growth medium most suitable for each cell line can be determined by reference to the publications cited above: briefly, HT-1080 cells are maintained in Eagle's Minimal Essential Medium (EMEM) supplemented with 5% fetal bovine serum (FBS) and 2 mM L-glutamine; IMR-90 cells are grown in EMEM supplemented with 10% FBS, 10 mM Hepes buffer, 0.21% NaHCO3, and 2 mM L-glutamine. […]\n(§2) Toxicity of pyrimidine analogues to cultured human cells is determined as follows. […] Thereafter, the number of cells in each well is determined. […] Cells that grow in suspension (e.g., HL-60 and L-1210 cells) are transferred to centrifuge tubes, pelleted at low speed, washed, and the viability determined as above. […]"}, "[2]": {"test_system": "HL-60 human promyelocytic leukemia cells", "test": "Toxicity to cultured HL-60 cells, number of viable cells", "assay_type": "cell-based", "excerpt": "as §1, §2"}, "[3]": {"test_system": "mammalian cell lines", "test": "Toxicity to a battery of mammalian cell lines", "assay_type": "cell-based, human and mouse", "excerpt": "as §1, §2"}, "[4]": {"test": "Host toxicity in P. yoelii-infected mice (diarrhea, weight loss, tolerance)", "assay_type": "in vivo, Swiss white mice", "procedure": "FIG. 6 illustrates the weight changes in mice receiving 5 mg/kg of 5-fluoro-orotate without (Δ) or with (.tangle-solidup.) uridine. The pyrimidine analogue was administered on days 3 to 6. The pyrimidine nucleoside was given to mice in experiment 2 on days 3 to 9. Data points represent mean weights of mice that remained alive during the course of experiments 1 and 2 (see FIG. 5C). Error bars represent standard deviations from the mean.\nA second in vivo test system can be used to determine if repeated administration of the pyrimidine analogue would have safe anti-malarial activity. In this test system, groups of animals are infected with malaria parasites. At a time when blood parasitemia is reached, the animals are injected with saline alone (control) or with various concentrations of one or more pyrimidine analogues alone or together with one or more rescuing pyrimidine bases or nucleosides at a single concentration, at intervals, over a period of several days. In order to determine the prophylactic effectiveness of the rescuing pyrimidine base or nucleoside, the animals are pretreated with such a base or nucleoside prior to the administration of the pyrimidine analogue. Anti-malarial activity of the treatments is estimated by determining blood parasitemia on the animals at appropriate times. The safety of the treatments is estimated by monitoring animals for weight loss and diarrhea, as these are early symptoms of pyrimidine analogue toxicity [Houghton, J. A., et al., Cancer Res., 39:2406-13 (1979)].\nSwiss white mice (25-30 g) were divided into groups of five. On day 0, each mouse was infected by intraperitoneal injection of 10^5 erythrocytic forms of P. yoelii. Starting on day 3, when the blood parasitemia had reached between 5 and 12%, the mice were injected intraperitoneally every 4 hours for three consecutive days with 200 μl of various formulations. In experiment 1, three groups of mice received 0.2, 1, or 5 mg/kg of 5-fluoro-orotate per injection, respectively. An accompanying control group received saline. In experiment 2, three groups of mice received 0.2, 1, or 5 mg/kg of 5-fluoro-orotate plus 800 mg/kg of uridine in a 200 μl saline formulation. An accompanying control group received 800 mg/kg of uridine alone. In experiment 2, mice were pretreated with one injection of 800 mg/kg of uridine two hours before receiving the first injection of 5-fluoro-orotate. Additionally, even though treatment with the pyrimidine analogue stopped on day 6, these mice continued to receive 1500 mg/kg of uridine, three times a day, for three additional days (i.e., up to day 9)."}}, "note": "pIC50: −log10 of the molar value. Read-outs that look alike come from different tables or passages of the source."}
{"smiles": "O=C(O)c1[nH]c(=O)[nH]c(=O)c1F", "note": "[5-fluoro-orotate]", "values": [{"measurement": "pIC50", "setting": "[1]; HeLa S3, with 1 mM uridine, read-out: IC50 With 1 mM Uridine", "result": 5.46}, {"measurement": "pIC50", "setting": "[1]; HeLa S3, without uridine, read-out: IC50 Without Uridine", "result": 5.70}, {"measurement": "pIC50", "setting": "[2]; HL-60, with 1 mM uridine, read-out: IC50 With 1 mM Uridine", "result": 5.35}, {"measurement": "pIC50", "setting": "[2]; HL-60, without uridine, read-out: IC50 Without Uridine", "result": 6.05}, {"measurement": "toxicity to rapidly dividing mammalian cells", "setting": "[3]; 0.1 to 1 μM, in culture", "result": "not toxic to rapidly dividing mammalian cells in culture"}, {"measurement": "pIC50", "setting": "[3]; read-out: IC50 range over the mammalian cell lines", "result": "5.00 to 6.05"}, {"measurement": "tolerance of highest dose", "setting": "[4]; 5 mg/kg every 4 hours", "result": "tolerated only when uridine was administered in combination with 5-fluoro-orotate"}, {"measurement": "mortality at higher doses", "setting": "[4]; experiment 1, 1 and 5 mg/kg, no uridine", "result": "dose-dependent increase in mortality"}, {"measurement": "diarrhea in surviving mice", "setting": "[4]; experiment 1, higher doses, no uridine", "result": "showed signs of diarrhea"}, {"measurement": "weight loss", "setting": "[4]; experiment 2, 5 mg/kg with uridine (FIG. 6)", "result": "no weight loss"}, {"measurement": "diarrhea", "setting": "[4]; experiment 2, with uridine", "result": "no mouse had diarrhea"}]}
